According to ChEMBL document CHEMBL1147246, “Flavonoids from Dalbergia louvelii and their antiplasmodial activity” (J Nat Prod, 2003):
Activity calls are given as the source filed them. The rule behind the calls is not given here.

test system: Plasmodium falciparum; assay: Antiplasmodial activity after 18 hrs against chloroquine-resistant Plasmodium falciparum FcB1 in human blood by [3H]hypoxanthine uptake; format: functional, organism-based

| SMILES | Activity | IC50 [µM] |
| --- | --- | --- |
| COc1cc(CCCc2cccc(O)c2)c(OC)cc1O | inactive |  |
| COc1cc2c(cc1O)[C@@H](C)[C@H](c1ccccc1)O2 [OBTUSAFURAN] |  | 8.7 |
| COc1cc(-c2coc3cc(O)ccc3c2=O)ccc1O |  | 6.8 |
| COC1=CC(=O)C(O)=CC12CCCc1cc(O)ccc12 (stereo not drawn) | inactive |  |
| COc1cc(-c2cc3ccc(O)cc3oc2=O)c(O)cc1O | inactive |  |
| C=C[C@@H](C1=CC(=O)C(OC)=CC1=O)c1ccccc1 |  | 5.8 |
| O=C(/C=C/c1ccc(O)cc1)c1ccc(O)cc1O [ISOLIQUIRITIGENIN] |  | 7.8 |
| COc1cc(O)c([C@@H]2COc3cc(O)ccc3C2=O)cc1OC | inactive |  |
